≈ marks a conversion by molar mass, not a printed value. Where two headings read alike, the source gives them in different places. Positions of bridges follow the written chain, without caps; N, C: chain ends. Non-standard residues stand in square brackets, D forms with d. Residues, ends and D or L forms follow the SMILES beside them. *: point of attachment. Isonicotinoyl(2-Ph) = O=C(c1ccnc(-c2ccccc2)c1)*; Benzoyl(4-Ph) = O=C(c1ccc(-c2ccccc2)cc1)*; dDab = NCC[C@@H](N)C(=O)O; Dab = NCC[C@H](N)C(=O)O; X5 = O=C(CCCCCCCO)*
Experiments:
[1] = test system: A. baumannii ATCC 19606
Summary of the method: (§1)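 Mid-log cultures grown in Mueller Hinton broth at 37° C were tested by 2-fold broth microdilution at 5×10^5 CFU/mL final. Compounds were dissolved in water and tested over a final range of 32 to 0.015 μg/mL.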

[2] = test system: S. aureus ATCC 25923, MSSA
Summary of the method: as §1

[3] = test system: P. aeruginosa GN_105, PmxR
Summary of the method: as §1

[4] = test system: P. aeruginosa GN_043, PmxR; details: P. aeruginosa GN_043, PmxR
Summary of the method: as §1

[5] = test system: K. pneumoniae GN_106, PmxR
Summary of the method: as §1

[6] = test system: K. pneumoniae GN_102 PmxR
Summary of the method: as §1

[7] = test system: E. coli ATCC 25922
Summary of the method: as §1

[8] = test system: K. pneumoniae ATCC 700603, MDR
Summary of the method: as §1

[9] = test system: K. pneumoniae ATCC 13883
Summary of the method: as §1

[10] = test system: A. baumannii GN_093 PmxR
Summary of the method: as §1

[11] = test system: K. pneumoniae ATCC BAA-2146, NDM-1 pos
Summary of the method: as §1

[12] = test system: P. aeruginosa ATCC 27853
Summary of the method: as §1

[13] = Cytotoxicity, resazurin assay, HepG2; details: human
Summary of the method: (§2)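 Compound exposure lasted 24 h, following 24 h attachment of 4000 cells/well at 37° C under 5% CO2.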

[14] = Cytotoxicity, HK2 LDH assay; details: human
Summary of the method: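 HK2 cells were seeded at 2000 per well in DMEM/F12 with 10% FBS and left to attach for 24 h at 37 °C, 5% CO2. They were then exposed for 24 h to 3-fold peptide dilutions starting from 600 μM solutions in quadruplicate. LDH release was read at 450 nm, and CC50 was fitted from dose-response curves.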

[15] = Cytotoxicity, resazurin assay, HEK293; details: human
Summary of the method: as §2

SMILES	MIC P. aeruginosa GN_043, PmxR [4] [µg/mL]	CC50 at 24 h [13] [µM]	CC50 at 24 h [14] [µM]	CC50 at 24 h [15] [µM]	MIC A. baumannii ATCC 19606 ([1]; ATCC 19606) [µg/mL]	MIC S. aureus ATCC 25923, MSSA ([2]; ATCC 25923) [µg/mL]	MIC P. aeruginosa GN_105, PmxR ([3]; GN 105, PmxR) [µg/mL]	MIC K. pneumoniae GN_106, PmxR ([5]; GN 106, PmxR) [µg/mL]	MIC K. pneumoniae GN_102 PmxR ([6]; GN 102 PmxR) [µg/mL]	MIC E. coli ATCC 25922 ([7]; ATCC 25922) [µg/mL]	MIC K. pneumoniae ATCC 700603, MDR ([8]; ATCC 700603) [µg/mL]	MIC K. pneumoniae ATCC 13883 ([9]; ATCC 13883) [µg/mL]	MIC A. baumannii GN_093 PmxR ([10]; GN 093 PmxR) [µg/mL]	MIC K. pneumoniae ATCC BAA-2146, NDM-1 pos ([11]; ATCC BAA-2146) [µg/mL]	MIC P. aeruginosa ATCC 27853 ([12]; ATCC 27853) [µg/mL]	further results
CC(C)C[C@@H]1NC(=O)[C@H](CCN)NC(=O)[C@H](CCN)NC(=O)[C@H](Cc2ccccc2)NC(=O)[C@@H](CC(C)C)NC(=O)[C@H](CCN)NC(=O)[C@@H](NC(=O)[C@@H](CCN)NC(=O)CCCCCCCO)CCNC1=O [compound 6514, 8OH-nC7CO-D-Dab-cyc[L-Dab-L-Dab-D-Leu-L-Phe-L-Dab-L-Dab-L-Leu]] (X5-[dDab][Dab][Dab][dL]F[Dab][Dab]L; lactam 2-C)	4 (≈ 3.94 µM)	> 300	> 300	> 300												MIC A. baumannii ATCC 19606 ([1]; A. baumannii ATCC 19606): >32 µg/mL; MIC S. aureus ATCC 25923, MSSA ([2]; S. aureus ATCC 25923, MSSA): >32 µg/mL; MIC P. aeruginosa GN_105, PmxR ([3]; P. aeruginosa GN_105, PmxR): >32 µg/mL; MIC K. pneumoniae GN_106, PmxR ([5]; K. pneumoniae GN_106, PmxR): >32 µg/mL; MIC K. pneumoniae GN_102 PmxR ([6]; K. pneumoniae GN_102 PmxR): >32 µg/mL; MIC E. coli ATCC 25922 ([7]; E. coli ATCC 25922): >32 µg/mL; MIC K. pneumoniae ATCC 700603, MDR ([8]; K. pneumoniae ATCC 700603, MDR): >32 µg/mL; MIC K. pneumoniae ATCC 13883 ([9]; K. pneumoniae ATCC 13883): >32 µg/mL; MIC A. baumannii GN_093 PmxR ([10]; A. baumannii GN_093 PmxR): >32 µg/mL; MIC K. pneumoniae ATCC BAA-2146, NDM-1 pos ([11]; K. pneumoniae ATCC BAA-2146, NDM-1 pos): >32 µg/mL; MIC P. aeruginosa ATCC 27853 ([12]; P. aeruginosa ATCC 27853): 8 µg/mL (≈ 7.87 µM)
CC(C)C[C@@H]1NC(=O)[C@H](CCN)NC(=O)[C@H](CCN)NC(=O)[C@H](Cc2ccccc2)NC(=O)[C@@H](CC(C)C)NC(=O)[C@H](CCN)NC(=O)[C@@H](NC(=O)[C@@H](CCN)NC(=O)c2ccnc(-c3ccccc3)c2)CCNC1=O [compound 6517, 3Phe4-PyCO-D-Dab-cyc[L-Dab-L-Dab-D-Leu-L-Phe-L-Dab-L-Dab-L-Leu]] ({Isonicotinoyl(2-Ph)}-[dDab][Dab][Dab][dL]F[Dab][Dab]L; lactam 2-C)	1 (≈ 0.948 µM)	> 300	> 300	> 300	>32	>32	4 (≈ 3.79 µM)	32 (≈ 30.3 µM)	>32	8 (≈ 7.58 µM)	8 (≈ 7.58 µM)	32 (≈ 30.3 µM)	>32	32 (≈ 30.3 µM)	2 (≈ 1.9 µM)	
CC(C)C[C@@H]1NC(=O)[C@H](CCN)NC(=O)[C@H](CCN)NC(=O)[C@H](Cc2ccccc2)NC(=O)[C@@H](CC(C)C)NC(=O)[C@H](CCN)NC(=O)[C@@H](NC(=O)[C@@H](CCN)NC(=O)c2ccc(-c3ccccc3)cc2)CCNC1=O [compound 6518, Ph-4-PhCO-D-Dab-cyc[L-Dab-L-Dab-D-Leu-L-Phe-L-Dab-L-Dab-L-Leu]] ({Benzoyl(4-Ph)}-[dDab][Dab][Dab][dL]F[Dab][Dab]L; lactam 2-C)	2 (≈ 1.9 µM)	≥ 300	180	> 300	>32	32 (≈ 30.4 µM)	2 (≈ 1.9 µM)	32 (≈ 30.4 µM)	>32	2 (≈ 1.9 µM)	8 (≈ 7.59 µM)	16 (≈ 15.2 µM)	>32	16 (≈ 15.2 µM)	2 (≈ 1.9 µM)	

From patent US11279733B2, “Peptide antibiotics” (priority 2017, dated 2022)
